Test results from publication PMC7179312 (Antimicrobial Agents and Chemotherapy, 2020).

Key:
[1] = system: P. aeruginosa PAM1154 carrying pUCP24 vector (PAM4175); assay: MIC, CLSI broth microdilution; type: cell-based; settings: Pseudomonas aeruginosa, drug alone
Excerpt: The effects of KPC mutations on resistance to various antibiotics were investigated. For these studies, pUCP24 plasmids carrying wild-type and mutant blaKPC-2 genes as well as the pUCP24 vector were transformed into PAM1154, an efflux-deficient strain of Pseudomonas aeruginosa. In this host, the effect of β-lactamases on β-lactam MIC is amplified due to the slowed uptake of β-lactams across the low-permeability outer membrane without interference by efflux of either β-lactams or BLIs. Consequently, this host allows detection of β-lactamase activity (as an MIC increase) of low-catalytic-efficiency enzymes that rely heavily on the low permeability of the outer membrane. Using the strain that lacks efflux pumps ensures no interference from efflux in interpreting results. We next evaluated the steady-state protein expression levels in bacterial cells. […] The observed discrepancy with our results could be attributed to the difference in either the expression vector or host bacteria.
(§1) For microbiological studies, wild-type blaKPC-2 and its mutant variants were cloned into the shuttle vector pUCP24. Resulting plasmids were transformed in the efflux-deficient strain of P. aeruginosa PAM1154 using selection on 15 μg/ml of gentamicin. Using a strain of P. aeruginosa as opposed to E. coli as a host for various cloned genes was based on the following consideration. As well documented elsewhere ([41]), P. aeruginosa has a low-permeability outer membrane; consequently, the effect of β-lactamases on MIC is amplified in P. aeruginosa compared to that in E. coli due to the slowed uptake of β-lactams. Thus, this host is appropriate to detect β-lactamase activity (as an MIC increase) of low-catalytic-efficiency enzymes that rely heavily on low permeability of the outer membrane. […] MICs were determined using the Clinical and Laboratory Standards Institute (CLSI) broth microdilution method as described in CLSI document M07-A11 ([42]). Potentiation of antibiotic activity by various BLIs in bacterial strains carrying wild-type (WT) and mutant KPC-2 genes was performed using standard checkerboard methodology ([43]). BLI potency was defined as PV50 (PV, potentiation value). PV50 is the minimal concentration of a BLI that is required to reduce the antibiotic MIC to the middle of the MIC range (E50) where the highest MIC is the MIC for a KPC-producing strain with no inhibitor added and the lowest MIC is the MIC for the vector-only strain, corresponding to the complete inhibition of KPC. E50 is calculated as the square root of the product of the antibiotic MICs for the KPC-producing and the vector-only strains.

[2] = system: P. aeruginosa PAM1154 carrying KPC-2::D179Y (PAM4639); assay: Checkerboard potentiation of antibiotic activity by BLIs; type: cell-based, Pseudomonas aeruginosa; settings: for increase of PV50 vs wild-type KPC-2: D179Y; for PV50: PAM4639 KPC-2::D179Y
Excerpt: (§2) BLI potency was defined as PV50 (PV, potentiation value) of antibiotic potentiation. PV50 is the concentration of a BLI that is required to reduce the antibiotic MIC to the middle of the MIC range where the highest MIC is the MIC for a KPC-producing strain with no inhibitor added and the lowest MIC is the MIC for the vector-alone strain, which corresponds to complete inhibition of KPC. As a given MIC is directly related to the β-lactamase activity, PV50 might be considered the concentration of a BLI that is required to achieve half-effect of inhibition of β-lactamase activity (in whole cells) to hydrolyze an antibiotic of interest. […] However, the accurate determination of PV50 requires the MIC range to be relatively wide.
as §1, with “Potentiation of antibiotic activity by various BLIs in bacterial strains carrying wild-type (WT) and mutant KPC-2 genes was performed using standard checkerboard methodology ([43]).” left out
(§3) […]
(§4) […]

[3] = system: P. aeruginosa PAM1154 carrying KPC-2::L169P (PAM4751); assay: as above; type: cell-based, Pseudomonas aeruginosa; settings: for PV50: PAM4751 KPC-2::L169P
Excerpt: as §2
as §1, with “Potentiation of antibiotic activity by various BLIs in bacterial strains carrying wild-type (WT) and mutant KPC-2 genes was performed using standard checkerboard methodology ([43]).” left out
as §3, §4

[4] = system: P. aeruginosa PAM1154 carrying wild-type KPC-2 (PAM4135); assay: as above; type: cell-based, Pseudomonas aeruginosa; settings: PAM4135 KPC-2
Excerpt: as §2
as §1, with “Potentiation of antibiotic activity by various BLIs in bacterial strains carrying wild-type (WT) and mutant KPC-2 genes was performed using standard checkerboard methodology ([43]).” left out
as §3, §4

[5] = target: T1, KPC-2 (Klebsiella pneumoniae, UniProt Q9F663); assay: Inactivation kinetics (k2/K, k−2, Kd), nitrocefin reporter substrate method; type: biochemical; settings: NCF hydrolysis, 37°C
T1 construct: 6xHis (C); made in house; host or cells: E. coli BL21(DE3) pLys, pET28a
Procedure: Inactivation kinetic parameters were determined by reporter substrate method for the slow tight binding inhibitor kinetic scheme ([45]). Protein was quickly mixed with 100 μM nitrocefin and various concentrations of BLI in reaction buffer, and absorbance at 490 nm was measured immediately every 2 s for 600 s on a SpectraMax plate reader (Molecular Devices, San Jose, CA) at 37°C. Resulting progression curves of OD490 versus time at various BLI concentrations were imported into Prism software (GraphPad, San Diego, CA), and pseudo-first-order rate constants (kobs) were calculated using the following equation: P=Vs×(1-e^-kobs^×^t)/kobs where Vs is enzyme nitrocefin cleavage rate in the absence of BLI. kobs values calculated at various vaborbactam concentrations were fitted in the following equation: kobs=k−2+k2/K×[I]/{1+[NCF]/Km(NCF)} where k2/K is the inactivation constant, [I] is inhibitor concentration, [NCF] is nitrocefin concentration, and Km(NCF) is the Michaelis constant of nitrocefin for KPC-2.

[6] = target: T2, KPC-2 D179Y (Klebsiella pneumoniae, UniProt Q9F663, D178Y); settings: D179Y substitution in KPC-2; cited from earlier work
T2 construct: 6xHis (C); made in house; host or cells: E. coli BL21(DE3) pLys, pET28a
T2 sequence (Q9F663 25-293 D178Y): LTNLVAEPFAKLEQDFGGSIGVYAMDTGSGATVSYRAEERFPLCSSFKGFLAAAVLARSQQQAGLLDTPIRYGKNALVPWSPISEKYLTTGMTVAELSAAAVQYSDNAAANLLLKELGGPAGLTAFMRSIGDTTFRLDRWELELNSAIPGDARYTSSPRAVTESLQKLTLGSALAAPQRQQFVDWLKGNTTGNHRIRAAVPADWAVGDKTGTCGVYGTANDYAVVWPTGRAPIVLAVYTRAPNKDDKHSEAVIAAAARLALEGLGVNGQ

T1 sequence (Q9F663 25-293 limits assumed): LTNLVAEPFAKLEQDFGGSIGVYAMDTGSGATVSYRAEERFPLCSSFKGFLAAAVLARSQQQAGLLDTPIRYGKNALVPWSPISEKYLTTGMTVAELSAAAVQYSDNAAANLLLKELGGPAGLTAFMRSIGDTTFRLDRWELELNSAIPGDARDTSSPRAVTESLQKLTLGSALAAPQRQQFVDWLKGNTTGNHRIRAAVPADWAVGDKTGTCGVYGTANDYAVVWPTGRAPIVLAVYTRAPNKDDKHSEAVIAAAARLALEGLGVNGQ

Question: For `NC(=O)[C@@H]1CC[C@@H]2CN1C(=O)N2OS(=O)(=O)O` [Avibactam, avibactam], which MIC [1] is on record?
Answer: 128 µg/mL

Question: What about the “increase of PV50 vs wild-type KPC-2” value ([2]; cefepime) of the same molecule?
Answer: 16 fold

Question: And the “increase of PV50 vs wild-type KPC-2” value ([2]; ceftazidime)?
Answer: 32 fold

Question: What about the “increase of PV50 vs wild-type KPC-2” value ([2]; piperacillin) of the same molecule?
Answer: 4 fold

Question: What about the PV50 ([2]; potentiation of cefepime) of the same molecule?
Answer: 4 µg/mL

Question: What about the PV50 ([2]; potentiation of ceftazidime) of the same molecule?
Answer: 4 µg/mL

Question: What about the PV50 ([2]; potentiation of piperacillin) of the same molecule?
Answer: 1 µg/mL

Question: What about the “increase of PV50 vs wild-type KPC-2” value ([3]; L169P, cefepime) of the same molecule?
Answer: 4 fold

Question: What about the PV50 ([3]; potentiation of cefepime) of the same molecule?
Answer: 1 µg/mL

Question: What about the PV50 ([3]; potentiation of ceftazidime) of the same molecule?
Answer: 2 µg/mL

Question: What about the PV50 ([3]; potentiation of piperacillin) of the same molecule?
Answer: 2 µg/mL

Question: What about the PV50 ([4]; potentiation of cefepime) of the same molecule?
Answer: 0.25 µg/mL

Question: And the PV50 ([4]; potentiation of ceftazidime)?
Answer: 0.125 µg/mL

Question: And the “k−2” value [5]?
Answer: 3.3 ± 0.1 × 10^−4 s^−1

Question: What about the “decrease in the inactivation constant k2/K” value [6] of the same molecule?
Answer: 70,000 fold
